Results as given in US12270065B2, “Methods for improving titer and purity of beta carotene fermentation in Blakeslea trispora (beta-carotene fermentation method)” (DSM IP Assets B.V., priority 2019, dated 2025).

Key:
[1] = system: B. trispora; assay: Effect on beta-carotene production with B. trispora in shake flask fermentation (HPLC); type: cell-based, Blakeslea trispora; conditions: for BC: average of two measurements; for Increase BC: compared to control with no curcumin/isoniazid
Procedure: (§1) Shake flask seed medium MIBLT-1. 23.5 g/l corn meal, 23 g/l soybean meal, 10 g/l glucose, 0.5 g/l KH2PO4 are mixed, the medium pH is adjusted to 6.3, homogenized with an Ultra-Turrax® blender (Ika) for 8 minutes at 13500 rpm, and heated at 70° C. for 45 minutes prior to autoclaving.
(§2) Shake flask production medium MF-BLT-22. 17.5 g/l corn meal, 40 g/l soya flour, 10 g/l soy lecithin, 0.5 g/l KH2PO4, 109 g/l soy oil, optionally 0.28 g/l isoniazid, optionally curcumin (1.0, 0.3, 0.1, 0.03 or 0.01% w/v), are mixed, the medium pH is adjusted to 6.3, is homogenized with an Ultra-Turrax® blender (Ika) for 8 minutes at 13500 rpm, and heated at 70° C. for 45 minutes prior to autoclaving.
(§3) Shake Flask Process. An Erlenmeyer flask (250 or 300 mL volume) containing 30 ml of seed medium (MIBLT-1) is inoculated with spores of B. trispora (−) strain to a concentration of 4.5×10^3 spores/ml. A second Erlenmeyer flask containing 30 ml of MIBLT-1 is inoculated with spores of B. trispora (+) strain to a concentration of 1.5×10^3 spores/ml. The flasks are incubated (220 rpm, 5 cm displacement, 27° C., protected from light) for 48 hr. Three ml of (+) strain culture are added to 30 ml of (−) strain culture, and the mated strains mixture is incubated (220 rpm, 5 cm throw, 27° C., protected from light) for 45 minutes. Erlenmeyer flasks (250 or 300 mL volume) containing 20 ml of production medium (MF-BLT-22) are inoculated with 2 ml of the mated strains mixture. Flasks are incubated (250 rpm, 5 cm displacement, 25° C., protected from light). At 48 hours after inoculation of the 20 mL production cultures, 40 μL of a 50% v/v sterile beta-ionone solution in absolute ethanol is added to each flask. Cultures are returned to the incubator for a total of 7 days post inoculation.
(§4) Sample preparation for HPLC-analysis. Each flask culture is transferred to a 50 mL conical tube and homogenized with an Ultra-Turrax® blender (Ika) for 2 minutes at 24000 rpm. Weigh out one gram of sample into a 100 ml volumetric flask. Eighty milliliters of Solution A are added to the flask and the flask is sonicated for 5 min. The volume is brought to 100 ml with solution A, and the solution is stirred for 60 minutes and allowed to settle for another hour.
(§5) HPLC-analysis. Samples from the above extract (10 μl) are injected as is on a calibrated HPLC using a Suplex-PKB-100 column (Supelco), with a flow rate of 0.6 ml/min, and column temperature of 30° C. The mobile phase contains (per L) 455 ml acetonitrile, 500 ml methanol, 0.2 ml N-ethyldiisopropylamine, 25 ml aqueous solution of 0.2% ammonium acetate, and 50 mg BHT (dissolved in 20 ml of 2-propanol). Compounds are identified and quantified by UV at 448 nm.
Concentration of beta-carotene was measured as described in Example 1, with comparison of different concentrations of curcumin.

[2] = system: B. trispora; assay: Effect on beta-carotene purity profile with B. trispora (percentage of total carotenoids, HPLC); type: cell-based, Blakeslea trispora; conditions: for 7,8-DH [%] of total carotenoids / BC [%] of total carotenoids: average of two measurements
Procedure: as §1, §2, §3, §4, §5
Fermentations and analysis were performed as described in Ex. 2, including addition of various concentrations of curcumin.

[3] = curcumin 0.3% w/v, listed as Curcumin

Question: Which results are given for `COc1cc(/C=C/C(=O)CC(=O)/C=C/c2ccc(O)c(OC)c2)ccc1O` [curcumin]?
Answer: BC ([1]; curcumin 0.01% w/v in production medium, no isoniazid): 1.74 g/L; Increase BC ([1]; curcumin 0.01% w/v): 12%; BC ([1]; curcumin 0.03% w/v in production medium, no isoniazid): 2.45 g/L; Increase BC ([1]; curcumin 0.03% w/v): 58%; BC ([1]; curcumin 0.1% w/v in production medium, no isoniazid): 3.48 g/L; Increase BC ([1]; curcumin 0.1% w/v): 125%; BC ([1]; curcumin 0.3% w/v in production medium, no isoniazid): 4.99 g/L; Increase BC ([1]; curcumin 0.3% w/v): more than 220%; Increase BC [1, 3]: 222%; BC ([1]; curcumin 1.0% w/v in production medium, no isoniazid): 4.55 g/L; Increase BC ([1]; curcumin 1.0% w/v): 194%; increase of percentage of beta-carotene based on total carotenoids ([2]; 0.3% curcumin, compared to fermentations without curcumin): about 10%; percentage of 7,8-dihydro-beta-carotene based on total carotenoids ([2]; about 0.3 to 1.0% curcumin): about 3%; reduction of 7,8-dihydro-beta-carotene based on total carotenoids ([2]; about 1.0% (w/v) curcumin, compared to no curcumin): about 68%; reduction of 7,8-dihydro-beta-carotene based on total carotenoids ([2]; addition of curcumin (amount not specified), compared to fermentation without curcumin): at least 28%; 7,8-DH [%] of total carotenoids ([2]; curcumin 0.01% w/v): 9.98%; BC [%] of total carotenoids ([2]; curcumin 0.01% w/v): 81.19%; 7,8-DH [%] of total carotenoids ([2]; curcumin 0.03% w/v): 6.99%; BC [%] of total carotenoids ([2]; curcumin 0.03% w/v): 85.59%; 7,8-DH [%] of total carotenoids ([2]; curcumin 0.1% w/v): 5.79%; BC [%] of total carotenoids ([2]; curcumin 0.1% w/v): 86.75%; 7,8-DH [%] of total carotenoids ([2]; curcumin 0.3% w/v): 3.35%; BC [%] of total carotenoids ([2]; curcumin 0.3% w/v): about 91%; BC [%] of total carotenoids [2, 3]: 91.44%; 7,8-DH [%] of total carotenoids ([2]; curcumin 1.0% w/v): 3.12%; BC [%] of total carotenoids ([2]; curcumin 1.0% w/v): 92.17%

Question: With `NNC(=O)c1ccncc1` [isoniazid, reference compound] as the compound, how does the “BC” value ([1]; isoniazid 0.28 g/l in production medium, no curcumin) read?
Answer: 4.17 g/L

Question: What about the “increase in the percentage of beta-carotene based on total carotenoids” value ([2]; addition of 0.28 g/l isoniazid, compared to no isoniazid) of the same compound?
Answer: less than 10%

Question: What about the “percentage of 7,8-dihydro-beta-carotene based on total carotenoids” value ([2]; addition of isoniazid (0.28 g/l)) of the same compound?
Answer: 28.1%
